Experimental data published in US20250382261A1 (The Broad Institute, Inc., priority 2021, published 2025).

Legend:
[1] = system: HepG2 cells; conditions: human, 72 h
[2] = Pharmacokinetic analysis after single intravenous dose
Description: (§4) Plasma samples were taken from 3 mice per time point (5, 15, 30 min; 1, 2, 4, 6 and 8 h post-dose). An aliquot of 2 μL sample was protein precipitated with 60 μL methanol, the mixture was vortex-mixed well and centrifuged at 13000 rpm for 10 min at 4° C. 2 μL supernatant was injected for LC-MS/MS analysis. The mean plasma concentration and the standard deviation from all 3 animals within each time point were calculated. PK parameters were calculated with a non-compartmental analysis. The mean plasma concentrations from all 3 mice at each time point were used in the calculations.

[3] = system: A. baumannii (ATCC 17978); assay: Checkerboard potentiation assay with novobiocin; type: cell-based; conditions: with novobiocin
Description: (§1) Bacterial strains and culture conditions. The following bacterial strains were used within this study; A. baumannii (ATCC 17978), K. pneumoniae (ATCC 43816), K. pneumoniae (ATCC 43816, expressing pGDP2:mcr-1), P. aeruginosa (PA01). Bacterial growth was in cation-adjusted Mueller-Hinton broth (MHB) at 37° C., and inoculum was prepared according to CLSI protocol (CLSI 2015).
(§2) Potentiation assays. Checkerboard analyses were conducted with each drug serially diluted at eight concentrations to create an 8×8 matrix. At least two biological replicates were done for each combination, and the means were used for FIC calculation. The FIC for each drug was calculated by dividing the concentration of the drug in the presence of codrug in a combination for a well showing <10% growth by the MIC for that drug alone. The FIC index (FICI) is the sum of the two FICs, with an FIC index≤0.5 deemed synergistic.

[4] = system: P. aeruginosa (PA01); assay: Checkerboard potentiation assay with novobiocin; type: cell-based
Description: as §1, §2
(§3) To probe the spectrum of activity of the present analogs beyond A. baumannii, their interactions with novobiocin were assessed against the high-priority Gram-negative pathogens Klebsiella pneumoniae and P. aeruginosa (FIG. 5).

[5] = system: K. pneumoniae (ATCC 43816); assay: Checkerboard potentiation assay with novobiocin; type: cell-based
Description: as §1, §2, §3

[6] = in vitro; conditions: human
[7] = HEK293 cytotoxicity assay (Cell Titer Glo); type: cell-based; conditions: human, HEK293 cells (ATCC CRL 1573), 48 h treatment, Cell Titer Glo; called AC50 in the text; read-out: HEK293T Cytotoxicity (IC50, μg/mL)
Description: Cytotoxicity Assays. HEK293 (ATCC CRL 1573) cells were left to adhere for 18 h at 7.5×10^3 cells per well in DMEM containing 10% FBS and 2 mM L-glutamine. Compound was added directly into the well. After 48 h of treatment Promega Cell Titer Glo 2.0® was added, shaken for 10 min, and luminescence read (Biotek Neo). AC50 values were calculated using a four-parameter logistic curve in GraphPad Prism 9.
Focusing on only the analogs that retained synergistic activity with novobiocin (FICI≤0.5), half-maximal activity (AC50) values were calculated against HEK293 cells using a CellTiter-Glo® based assay to approximate cell viability. […] Specifically, the FICI value for both P35 and P36 was 0.094 against A. baumannii, while their AC50 values were 235 μg/mL and 200 μg/mL, respectively.

[8] = in vivo; conditions: female, C57BL/6, mouse, plasma, iv, 1 mg/kg
Description: as §4

[9] = system: A. baumannii ATCC 17978; conditions: murine systemic A. baumannii infection, Stokes et al. 2017; cited from earlier work
[10] = system: A. baumannii ATCC 17978; assay: Systemic A. baumannii murine infection model; type: in vivo, mouse
Description: Mouse infection models. Animal experiments were conducted according to guidelines set by the Canadian Council on Animal Care using protocols approved by the Animal Review Ethics Board at McMaster University under Animal Use Protocol #20-12-43. Before infection, mice were relocated at random from a housing cage to treatment or control cages. No animals were excluded from analyses, and blinding was considered unnecessary. Seven- to nine-week-old female C57BL/6 mice (Charles River) were infected intraperitoneally with ˜2×10^6 CFU of A. baumannii ATCC 17978, with 5% porcine mucin (Sigma-Aldrich). Infections were allowed to establish for 2 h, and treatments were administered intraperitoneally. For the survival study, the clinical endpoint was determined using a five-point body condition score analyzing weight loss, decrease in body temperature, respiratory distress, hampered mobility and hunched posture. Experimental endpoint was defined as five days post-infection for mice not reaching clinical endpoint. For CFU/mL enumeration, animals were infected as described above and euthanized 6 h post-infection, and blood was collected into sterile 2 ml heparinized tubes (BD Scientific) serially diluted in PBS and plated onto solid LB. Plates were incubated overnight at 37° C., and colonies were quantified to determine bacterial load.
This was directly compared to the activity of P35 and P36 in this model (all administered at 10 mg/kg) in combination with novobiocin (50 mg/kg).
For this experiment the same A. baumannii infection model was used, however, endpoint was defined as 6 h post-infection, at which point blood was collected for CFU/mL enumeration (FIG. 2b).

[11] = system: LPS from E. coli EH100; assay: BODIPY-Cadaverine LPS displacement assay; type: binding; conditions: BODIPY-cadaverine displacement from E. coli EH100 LPS
Description: BODIPY-Cadaverine LPS displacement assay. The BODIPY-cadaverine LPS displacement assay was performed as previously described (Wood et al. 2004. Combinatorial Chemistry & High Throughput Screening, 7: 239-49; Klobucar et al. 2021. ACS Chemical Biology, 16: 929-42). A solution of BODIPY-cadaverine (2.25 μM) and LPS from E. coli EH100 (5.25 μM) in Tris-HCl buffer (50 mM, pH 7.4) was prepared. 0.5 μL of compound and 49.5 μL of the Tris-HCl buffer with BODIPY-cadaverine and LPS solution were added to a Corning nonbinding surface black 384-well polystyrene plate. Fluorescence intensity was measured immediately with an excitation wavelength of 580 nm and an emission wavelength of 620 nm. EC50 values were calculated using a three-parameter logistic curve in GraphPad Prism 9.

[12] = system: human red blood cells; assay: Hemolysis in human blood; conditions: 100 μM, 45 min, 37° C.

Question: For `N=C(N)c1ccc(OCCCCCOc2ccc(C(=N)N)cc2)cc1` [Pentamidine, pentamidine, reference compound], which AC50 [1] is on record?
Answer: The AC50 was greater than 150 µM.

Question: And the “Adverse effects after single intravenous dose” value ([2]; female C57BL/6 mice, 1 mg/kg i.v. in water)?
Answer: Its value is “no adverse effects”.

Question: What about the “AUCExtra (%)” value ([2]; mouse, 1 mg/kg IV) of the same compound?
Answer: Its value is 2.76%.

Question: What about the “AUMCExtra (%)” value ([2]; mouse, 1 mg/kg IV) of the same compound?
Answer: The value was 45.8%.

Question: And the “Tlast” value ([2]; mouse, 1 mg/kg IV)?
Answer: Its value is 4.00 h.

Question: And the “FICI AB” value [3]?
Answer: The value was 0.25.

Question: What about the “FICI PA” value [4] of the same compound?
Answer: The value was 0.75.

Question: What about the “FICI KP” value [5] of the same compound?
Answer: Its value is 0.375.

Question: What about the AC50 at 72 h ([6]; HepG2 viability / cell cycle arrest AC50, HepG2, 72 h incubation) of the same compound?
Answer: The AC50 at 72 h was less than 0.293 µM.

Question: And the AC50 at 72 h ([6]; Nuclear Size AC50 (μM))?
Answer: Its AC50 at 72 h is 2.28 µM.

Question: What about the AC50 at 72 h ([6]; Phospholipidosis AC50 (μM)) of the same compound?
Answer: The AC50 at 72 h was greater than 150 µM.

Question: What about the IC50 at 48 h [7] of the same compound?
Answer: Its IC50 at 48 h is 73 µg/mL.

Question: And the AUC(0-inf) [8]?
Answer: The AUC(0-inf) was 119 ng·h/mL.

Question: And the AUC(0-t) [8]?
Answer: Its AUC(0-t) is 116 ng·h/mL.

Question: What about the C0 [8] of the same compound?
Answer: Its C0 is 1260 ng/mL.

Question: What about the MRT inf [8] of the same compound?
Answer: Its MRT inf is 24.7 min.

Question: What about the MRT last [8] of the same compound?
Answer: Its MRT last is 13.7 min.

Question: And the Vd [8]?
Answer: Its Vd is 3.45 L/kg.

Question: And the clearance [8]?
Answer: The clearance was 140 mL/min/kg.

Question: What about the half-life [8] of the same compound?
Answer: The half-life was 118 min.

Question: And the “Animals rescued in combination with novobiocin (previous work)” value [9]?
Answer: Its value is 100%.

Question: And the “Reduction in blood CFU/mL in combination with novobiocin” value ([10]; 10 mg/kg + 50 mg/kg novobiocin, 6 h post-infection)?
Answer: The value was 2.08 log10.

Question: What about the “Animals rescued in combination with novobiocin” value ([10]; 10 mg/kg analog + 50 mg/kg novobiocin i.p. 2 h post-infection, endpoint 5 days) of the same compound?
Answer: The value was 100%.

Question: And the “LPS Displacement (EC50, μg/mL)” value [11]?
Answer: Its value is 231 µg/mL.

Question: And the “Hemolysis of human blood” value [12]?
Answer: Its value is “Neither compound was hemolytic”.
